Measurements taken from patent US20020197244A1, “Compositions and methods for regulating phagocytosis and ICAM-1 expression” (priority 1998, published 2002).

What was measured:
Type in all cases: cell-based
[1] = test system: Human PMN cells; assay: PMN chemotactic migration towards FMLP, Boyden chamber
Method: Since ICAM-1 is involved in cell migration, cell migration towards a chemotactic peptide was studied in cells treated with Compound I and STI. Human PMN cells were placed in one side of a Boyden chamber, using standard techniques, and a chemotactic peptide (FMLP) was placed in the other chamber. Cells were allowed to migrate into the second chamber, and the number of migrating cells per field and distance of migration were calculated. The experiment was repeated with PMN cells pretreated with one of the following: 5 or 0.5 mg/ml STI, 1 or 0.1 μM Compound I, a buffer vehicle, and with and without chemotactic peptide. The number of cells per field that migrated the same distance as the untreated control was measured. Without the peptide and with no treatment, an average of 19 cells/field were migrating a distance of 80 microns. […] In other words, no cells (or less than 5/field) were identified at 115 microns. […] The ability to inhibit PMN migration is an important constituent of anti-inflammatory compounds.

[2] = test system: monolayer keratinocyte/melanocyte co-cultures; assay: Pigmentation in monolayer keratinocyte/melanocyte co-cultures (K-M contact); conditions: keratinocyte-melanocyte contact
Method: (§1) Since PAR-2 is expressed in keratinocytes, but not in melanocytes, the possible requirement of keratinocyte-melanocyte contact was tested for the effect of Compound I and SLIGRL on melanosome phagocytosis by the keratinocytes. Primary melanocyte cultures (commercially available from Clonetics, San Diego) were plated under epidermal equivalents (EpiDerm, of MatTek, Ashland, Mass.) to create an equivalent-monolayer co-culture with no contact between keratinocytes and melanocytes. These co-cultures were compared to MelanoDerm equivalents (of MatTek), where melanocytes are present in the basal layer of the equivalent. Cultures were treated with Compound I, with the […], and with the PAR-2 agonist SLIGRL. As set forth in Table 3, keratinocytes are indicated by “K”, melanocytes are indicated by “M”, and lack of keratinocyte-melanocyte contact is indicated as “no K-M cont”. […] The same result was also observed with monolayer keratinocyte/melanocyte co-cultures having keratinocyte/melanocyte contact.

[3] = test system: MelanoDerm equivalents; assay: Pigmentation in melanocyte-containing epidermal equivalents; conditions: keratinocyte-melanocyte contact
Method: as §1

[4] = test system: melanocyte cultures plated under epidermal equivalents (EpiDerm); assay: Pigmentation in equivalent-monolayer co-culture (no K-M contact); conditions: no keratinocyte-melanocyte contact
Method: as §1

FMLP [reference compound]
Migration (distance) ([1]; buffer without peptide: 80 μ): 115 μ
Cells/Field ([1]; cells counted at 115 microns, PMN pretreated with 5 or 0.5 mg/ml STI or 1 or 0.1 μM Compound I, buffer without FMLP: 19 at 80 μ): 41 cells/field

TFLLRNPNDK [printed as PAR-2 agonist]
level of pigmentation, Mono-Layer Co-Cultures (K-M cont.) [2]: no effect
level of pigmentation, Epidermal Equivalents (K-M cont.) [3]: no effect
level of pigmentation, Equivalent Monolayer Co-culture (no K-M cont.) [4]: no effect
